Test results published in US20220041667A1, “TARGETING OF MAKAP-PDE4D3 COMPLEXES IN NEURODEGENERATIVE DISEASE” (The Board of Trustees of the Leland Stanford Junior …, priority 2018, published 2022).

B1: mAKAP-SR-GFP: GFP-tagged fragment encoding the mAKAP spectrin-repeat domains (amino acid residues 586-1286) (protein)
chain: GSDSIKSPVPLLSKNKSQKSSPPAPCHATQNGQVVEAWYGSDEYLALPSHLKQTEVLALKLESLTKLLPQKPRGETIQDIDDWELSEMNSDSEIYPTYHIKKKHTRLGTVSPSSSSDIASSLGESIESGPLSDILSDEDLCLPLSSVKKFTDEKSERPSSSEKNESHSATRSALIQKLMHDIQHQENYEAIWERIEGFVNKLDEFIQWLNEAMETTENWTPPKAETDSLRLYLETHLSFKLNVDSHCALKEAVEEEGHQLLELVVSHKAGLKDTLRMIASQWKELQRQIKRQHSWILRALDTIKAEILATDVSVEDEEGTGSPKAEVQLCHLETQRDAVEQMSLKLYSEQYTSGSKRKEEFANMSKAHAEGSNGLLDFDSEYQELWDWLIDMESLVMDSHDLMMSEEQQQHLYKRYSVEMSIRHLKKSELLSKVEALKKGGLSLPDDILEKVDSINEKWELLGKTLREKIQDTIAGHSGSGPRDLLSPESGSLVRQLEVRIKELKRWLRDTELFIFNSCLRQEKEGTSAEKQLQYFKSLCREIKQRRRGVASILRLCQHLLDDRDTCNLNADHQPMQLIIVNLERRWEAIVMQAVQWQTRLQKKMGKESETLNVIDPGLMDLNGMSEDALEWDETDISNKLISVHEESNDLDQDPEPMLPAVKLEETHHKDSGYEEEAGDCGGSPYTSNITAPSSPHIYQV
modifications: left off: large carriers

Experiments:
[1] = test system: hippocampal neurons; experiment: Neurite extension assay (length of longest neurite) in primary hippocampal neurons; assay type: cell-based, rat; settings: for effect on neurite extension (pharmacological induction): hippocampal neurons, 40 mM KCl, 10 μM FSK, 100 μM IBMX, 20 μM milrinone or 10 μM rolipram for 2 days
Method: Primary rat hippocampal neurons: Hippocampal cultures were prepared from Sprague Dawley rat embryonic day 18 embryos. Briefly, the rat hippocampal CA1-CA3 region was dissected in PBS medium with 10 mM D-glucose and digested with 0.05% trypsin-EDTA in PBS with 11 mM D-glucose for 30 min at 37° C. The dissociated tissues were centrifuged at 250 g for 2 min and then triturated with fire polished glass pipet in Hank's balanced salt solution (HBSS) with calcium and magnesium in plating medium (10% v/v horse serum in DMEM). Dissociated neurons were plated on nitric acid-treated 25-mm cover glass coated with poly-L-lysine in plating medium. Four hours after plating, the medium was replaced with maintenance medium supplemented with 1% N2, 2% B27 (Invitrogen, Carlsbad, Calif., USA), 5 mM D-glucose, 1 mM sodium pyruvate. Four days later, 4 μM arabinosyl cytosine was added to inhibit glial proliferation and the neurons were either transfected with JPEI or infected with adenovirus.
Live cell imaging was performed 36-72 h after transfection/infection as described below. For neurite extension assays, the cells were cultured for two days in DMEM with 1 μg/ml chicken egg albumin and 1 mM sodium pyruvate. 40 mM KCl, 10 μM FSK, 100 μM IBMX, 20 μM Milrinone, 10 μM Rolipram were included as indicated. Two days later, the neurons were fixed and stained with antibodies. Nuclei were counter stained with DAPI and SlowFade Gold antifade solution (Molecular Probes) was added before coverslip mounting. Images were acquired with IPLab or Slidebook 6 by wide-field microscopy (Leica DMI 6000B or Zeiss Axio Observer 7) and processed with Adobe PhotoShop CSS 12.1. The length of the longest neurite for ˜15 neurons average per condition was measured for each experiment with ImageJ with Simple Neurite Tracer plugin. Other neuronal images were acquired using a Zeiss 880 confocal microscope.

[2] = biological target: PKA (protein kinase A, in Cos-7 cells); experiment: cell-based or functional assay

Molecule | effect on neurite extension (pharmacological induction) [1] | further results
CC(C)Cn1c(=O)n(C)c(=O)c2[nH]cnc21 [IBMX, 3-isobutyl-1-methylxanthine] | induced neurite extension | –
[Cl-].[K+] [KCl] | induced neurite extension | increase in axon extension due to KCl depolarization alone ([1]; GFP-expressing hippocampal neurons): 29%; increase in axon extension due to KCl depolarization alone ([1]; mCherry-nesprin-expressing hippocampal neurons): 37%
Cc1[nH]c(=O)c(C#N)cc1-c1ccncc1 [milrinone] | no effect on neurite growth | –
COc1ccc(C2CNC(=O)C2)cc1OC1CCCC1 (centres unmarked) [rolipram] | induced neurite extension | –
mAKAPα WT (N-terminally myc-tagged rat mAKAPα) (from UniProt Q9WVC7 1-2314) | – | amplitude of PN-AKAR4 FRET transient after FSK pulse in Cos-7 cells [2]: 50%
B1 | – | effect on axon outgrowth (longest neurite length) ([1]; hippocampal neurons in defined media and with chronic KCl depolarization, vs GFP control): inhibited axon outgrowth
